From US5391540A, “Substituted pyridine compounds” (Rohm and Haas Company, priority 1993, dated 1995) come the findings set out here.

Format in all cases: in vivo
Assay [1] concerns Morningglory. Nature of the assay: Post-emergence herbicidal activity (Table C). The settings on record: Mogl, 11.2 kg/ha, 10-14 days. An excerpt:
(§1) The post-emergent activity is best seen on younger plants treated at the 11/2 to 2 leaf stage. In the tests which follow, larger and more developed plants were used.
(§2) The post-emergent herbicidal activity index used in Table C is as follows:
(§3) Top soil was placed in pans having holes in the bottom and compacted to a depth of 0.95 to 1.27 cm. from the top of the pan. A predetermined number of seeds of each of several dicotyledonous and monocotyledonous annual plant species and/or vegetative propagules for the perennial plant species were placed on the soil and pressed into the soil surface. The seeds and/or vegetative propagules were covered with soil and leveled. The pans were then placed on a bench in the greenhouse and watered as needed for germination and growth. After the plants reached the desired age (two to three weeks), each pan (except the control pans) was moved to a spraying chamber and sprayed by means of an atomizer. The spray solution or suspension contained about 0.4% by volume of an emulsifying agent and a sufficient amount of the candidate chemical to give an application rate of the active ingredient of 11.2 kg/ha while applying a total amount of solution or suspension equivalent to 1870 L/ha. […] The plant identifying codes in Table C are the same as above defined.

In assay [2] the test system is Cocklebur. Nature of the assay: Post-emergence herbicidal activity (Table C). As to conditions: Cobu, 11.2 kg/ha, 10-14 days.
Text: as §1, §2, §3

Assay [3] relates to Downy Brome. Nature of the assay: Post-emergence herbicidal activity (Table C). The settings on record: Dobr, 11.2 kg/ha, 10-14 days.
Text: as §1, §2, §3

In assay [4] the test system is Velvetleaf. Nature of the assay: Post-emergence herbicidal activity (Table C). The settings on record: Vele, 11.2 kg/ha, 10-14 days.
Text: as §1, §2, §3

Assay [5] has as its system Rhizome Johnsongrass. Nature of the assay: Post-emergence herbicidal activity (Table C). As to conditions: Rhjg, 11.2 kg/ha, 10-14 days.
Text: as §1, §2, §3

Assay [6] relates to Quackgrass. Nature of the assay: Post-emergence herbicidal activity (Table C). The settings on record: Rhqg, 11.2 kg/ha, 10-14 days.
Text: as §1, §2, §3

In assay [7] the test system is Yellow Nutsedge. Nature of the assay: Post-emergence herbicidal activity (Table C). As to conditions: Yens, 11.2 kg/ha, 10-14 days.
Text: as §1, §2, §3

In assay [8] the test system is Pennsylvania Smartweed. Nature of the assay: Post-emergence herbicidal activity (Table C). The settings on record: Pesw, 11.2 kg/ha, 10-14 days.
Text: as §1, §2, §3

Assay [9] deals with Canada thistle. Nature of the assay: Post-emergence herbicidal activity (Table C). As to conditions: Cath, 11.2 kg/ha, 10-14 days.
Text: as §1, §2, §3

The test system of assay [10] is Barnyardgrass. Nature of the assay: Post-emergence herbicidal activity (Table C). The settings on record: Bygr, 11.2 kg/ha, 10-14 days.
Text: (§4) In the tests which follow, larger and more developed plants were used.
as §2
as §3, with “atomizer.” for “atomizer. The spray solution or suspension contained about 0.4% by volume of an emulsifying agent and a sufficient amount of the candidate chemical to give an application rate of the active ingredient of 11.2 kg/ha while applying a total amount of solution or suspension equivalent to 1870 L/ha.”

For assay [11], the system named is Common Lambsquarters. Nature of the assay: Post-emergence herbicidal activity (Table C). The settings on record: Colq, 11.2 kg/ha, 10-14 days.
Text: as §4, §2
as §3, with “atomizer.” for “atomizer. The spray solution or suspension contained about 0.4% by volume of an emulsifying agent and a sufficient amount of the candidate chemical to give an application rate of the active ingredient of 11.2 kg/ha while applying a total amount of solution or suspension equivalent to 1870 L/ha.”

Assay [12] has as its system Morningglory. Nature of the assay: Pre-emergent herbicidal activity (Table A). The settings on record: Mogl, 11.2 kg/ha, 10-14 days. In outline: (§5)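 Seeds or perennial propagules set on compacted topsoil, then covered with soil mixed with a known amount of test compound applied in acetone or water carrier. Ratings assigned on a scale based on percent inhibition of each species.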

For assay [13], the system named is Cocklebur. Nature of the assay: Pre-emergent herbicidal activity (Table A). As to conditions: Cobu, 11.2 kg/ha, 10-14 days. The essentials:
as §5

Assay [14] deals with Downy Brome. Nature of the assay: Pre-emergent herbicidal activity (Table A). As to conditions: Dobr, 11.2 kg/ha, 10-14 days. In outline:
as §5

For assay [15], the system named is Barnyardgrass. Nature of the assay: Pre-emergent herbicidal activity (Table A). The settings on record: Bygr, 11.2 kg/ha, 10-14 days. In outline:
as §5

In assay [16] the test system is Velvetleaf. Nature of the assay: Pre-emergent herbicidal activity (Table A). As to conditions: Vele, 11.2 kg/ha, 10-14 days. The essentials:
as §5

The subject of assay [17] is Common Lambsquarters. Nature of the assay: Pre-emergent herbicidal activity (Table A). The settings on record: Colq, 11.2 kg/ha, 10-14 days. The essentials:
as §5

In assay [18] the test system is Rhizome Johnsongrass. Nature of the assay: Pre-emergent herbicidal activity (Table A). The settings on record: Rhjg, 11.2 kg/ha, 10-14 days. The essentials:
as §5

Assay [19] concerns Quackgrass. Nature of the assay: Pre-emergent herbicidal activity (Table A). As to conditions: Rhqg, 11.2 kg/ha, 10-14 days. In outline: as §5
In assay [20] the test system is Yellow Nutsedge. Nature of the assay: Pre-emergent herbicidal activity (Table A). As to conditions: Yens, 11.2 kg/ha, 10-14 days. The essentials:
as §5

Assay [21] concerns Pennsylvania Smartweed. Nature of the assay: Pre-emergent herbicidal activity (Table A). The settings on record: Pesw, 11.2 kg/ha, 10-14 days. The essentials: as §5
For assay [22], the system named is Canada thistle. Nature of the assay: Pre-emergent herbicidal activity (Table A). As to conditions: Cath, 11.2 kg/ha, 10-14 days. In outline: as §5

As for “3-pyridinecarboxylic acid, 5-(aminocarbonyl)-1,2,3,4-tetrahydro-4-(2-methylpropyl)-6-(pentafluoroethyl)-, ethyl ester [Compound 10]”, the “post-emergent herbicidal activity index” value in assay [1], in [2], in [3], in assay [4], in [5] and in [6] was 0 (0-24% inhibition) throughout. The “post-emergent herbicidal activity index” value in [7], in assay [8], in assay [9], in assay [10] and in assay [11] was 0 (0-24% inhibition) throughout. For the same substance, the “herbicidal rating (% inhibition)” value in assay [12], in assay [13], in assay [14], in assay [15], in [16] and in [17] was 0 (0-24) throughout. For the same substance, the “herbicidal rating (% inhibition)” value in [18], in [19], in assay [20], in [21] and in assay [22] was 0 (0-24) throughout.
